Here are results for two molecules from US20120329872A1, “Ready-To-Eat Feed For Domestic Pets” (Alzchem Trostberg GmbH, priority 2006, published 2012).

Molecules are shown by their SMILES.

Data set [1] is described as follows: Stability in water (pH 7) heated in an autoclave to 160° C. for 30 minutes (model of feed extrusion). Format: physicochemical. The procedure:
For this purpose a model system was used for the extrusion of a moist feed paste at 160° C. […] Subsequently the content of creatine and guanidinoacetic acid was determined.

A short description of data set [2]: Storage stability in water at pH 5 over 60 days (comparable to canned feeds). Type of data set: physicochemical.
For data set [3] the following is noted: dogs, oral, about 40 mg/kg daily for several weeks; cited from earlier work.
For data set [4] the following is noted: 200 patients, 30 mg GAA/kg daily for one year, in combination with betaine; cited from earlier work.
Data set [5] has as its system Staphylococcus aureus. The following applies: bacterial infections (Staphylococcus aureus); cited from earlier work.

Regarding `CN(CC(=O)O)C(=N)N` [creatine, reference compound], in data set [1] (water pH 7, 30 minutes at 160° C., autoclave), the “content remaining, of the original content” value is given as “less than 20%”. In addition, in data set [2] (water pH 5, after 60 days), the “content recovered after storage” value is on record as 87%. For the same molecule, in data set [3], the body weight change entry is listed as “considerable increase in weight” and the nitrogen balance result is recorded as “positive nitrogen balance”.

Consider `N=C(N)NCC(=O)O` [guanidinoacetic acid], for which the side effects entry in data set [4] is reported as “not observed”. Further, the “content remaining, of the original content” value in data set [1] (0.5 h, pH 7) was “more than 80%”. Besides, the degradation after storage result in data set [2] (water pH 5, after 60 days) is “no degradation”. The “storage stability compared with creatine (FIG. 2)” value in data set [2] (water pH 5, over 60 days) is recorded as “significantly higher storage stability than creatine”. Further, in data set [5], the “antibacterial action in animal experiments” value is “successfully used against bacterial infections”.
